Assay results published in patent US4684650A, “Antihypertensive fluorophenylindanyl imidazolidinoneethylpiperazines” (priority 1984, dated 1987).
Like-named read-outs stand apart in the source and are kept apart here.

Key:
[1] = test system: phenylephrine pressor responses; experiment: Antagonism to phenylephrine pressor responses in pithed rats; assay type: in vivo; details: for change in vivo at […] / ED50: Rattus norvegicus, iv; for change in vivo at […]: read-out: Effects on pressor response of Phenylephrine, % eff. of […], pithed rats, […], jugular vein, read-out: Effects on pressor response of Phenylephrine, % eff. of 0.31 mg/kg; for ED50: read-out: Effects on pressor response of Phenylephrine, ED50
Protocol: (§1) The rat is anaesthetized with ether, tracheotomized, artificial respired and pithed. The knitting-needle is introduced through the right orbita into the cranial cavity and passed through foramen magnum into the spinal canal as far as possible. The spinal cord is destroyed by turning the needle. After vagotomi both carotides are ligated and a catheter placed in the right one for pressure recording. The rat is adrenalectomized. […] The initial and post medication mean pressor effect is calculated, and the mean pressor effect is calculated as % of the initial value. Two to five preparations are employed for each dose level. The ED50 is determined.

[2] = test system: 5-HT pressor responses; experiment: Antagonism to 5-HT pressor responses in pithed rats; assay type: in vivo; details: for change in vivo at 0.02 mg/kg / ED50: Rattus norvegicus, iv
Protocol: as §1

[3] = test system: spontaneous hypertensive rats (SHR); experiment: Antihypertensive effect in spontaneous hypertensive rats (SHR); assay type: in vivo; details: for change in vivo at 5 mg/kg / ED10: Rattus norvegicus, ip; for change in vivo at 5 mg/kg: 1 h; for peripheral or central action: in words
Protocol: Antihypertensive effect in spontaneous hypertensive rats (SHR)
The femoral artery of male SHR is cannulated in anaestesia for blood pressure recordings. After a stabilization period of 11/2 h after discontinuation of the anaesthesia initial blood pressure curves are recorded and the systolic (SAP)/diastolic (DAP) pressure determined (-20, -10, 0, min. p.i.) Test substance is injected i.p. and the pressure curve recorded for one hour. The change in SAP/DAP is calculated in percent at mean initial values at different times (10, 20, 30, 40, 50 and 60 minutes after injection). At least two SHR are used per dose level. The maximum change is used for estimation of the drug effect.

[4] = test system: 1-5-HTP-induced head shakes; experiment: 1-5-HTP-induced head shakes; assay type: in vivo; details: Rattus norvegicus, sc, rats, 1-5-HTP 75 mg/kg i.p. after citalopram; read-out: 1-5-HTP-antg. ED50
Protocol: The rats were pretreated subcutaneously with test compound or saline simultaneously with or 90 min before injection of citalopram (10 mg/kg s.c.).
Each group consisted of 4-12 rats.

[5] = test system: methylphenidate induced stereotypies; experiment: Methylphenidate Antagonism; assay type: in vivo, mice; details: for ED50: Mus musculus, ip, read-out: MePh antg. ED50, i.p., mice, 2 hours before methylphenidate 60 mg/kg s.c.
Protocol: The experiments were made as described by Pedersen and Christensen (1972) Acta Pharmacol. et Toxicol. 31, 488-496.--Briefly, test compounds or saline were injected i.p. 2 hours before methylphenidate, 60 mg/kg s.c. 3 pairs of mice were used for each dose level. After methylphenidate injection the mice were placed in observation cages for one hour. The cages were placed on corrugated paper, the corrugation facing upwards.

[6] = molecular target: T1, 5-HT2 receptors (Rattus norvegicus, UniProt P14842); experiment: 3H-spiroperidol binding to 5-HT2 receptors; details: rat whole cortex, 0.5 nM 3H-spiroperidol, 0.3 μM sulpiride; read-out: 3H-SPI binding 5-HT2 IC50
T1 construct: Rat whole cortex was homogenized by an Ultra Turrax homogenizer; from tissue; host or cells: rat whole cerebral cortex, crude washed membranes
T1 sequence (P14842 whole entry): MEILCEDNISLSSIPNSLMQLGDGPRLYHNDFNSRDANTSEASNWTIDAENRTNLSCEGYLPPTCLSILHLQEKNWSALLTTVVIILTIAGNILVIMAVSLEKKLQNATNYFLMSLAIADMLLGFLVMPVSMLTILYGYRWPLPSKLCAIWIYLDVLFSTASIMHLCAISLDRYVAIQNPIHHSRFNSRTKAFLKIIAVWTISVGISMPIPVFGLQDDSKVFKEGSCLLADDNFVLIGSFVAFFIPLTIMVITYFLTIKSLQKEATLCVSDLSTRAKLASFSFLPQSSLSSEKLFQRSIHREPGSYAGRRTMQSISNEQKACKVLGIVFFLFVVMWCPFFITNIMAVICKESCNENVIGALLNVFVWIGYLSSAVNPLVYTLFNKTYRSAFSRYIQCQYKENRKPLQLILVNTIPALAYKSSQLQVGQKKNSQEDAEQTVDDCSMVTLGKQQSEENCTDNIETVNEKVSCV
Protocol: ^3 H-spiroperidol binding to 5-HT2 receptors.
Rat whole cortex was homogenized by an Ultra Turrax homogenizer in 100 vol. of 50 mM Tris buffer pH 7.7. The homogenate was centrifuged at 20,000 g for 10 minutes at 4° C. The pellet was rehomogenized in another volume of buffer and centrifuged as mentioned above. The final pellet was rehomogenized in 50 mM Tris buffer pH 7.7 containing 120 mM NaCl, 5 mM KCl, 2 mM CaCl2 and 1 mM MgCl2 (ion mix) in a volume corresponding to 12.5 mg original tissue per ml.
Test drugs were dissolved in water; ^3 H-spiroperidol (NEN, 28-30 Ci/mmol) was diluted in 3 μM sulpiride, and 800 μl membrane suspension were added. Final concentration of ligand and sulpiride were 0.5 nM and 0.3 μM, respectively. The samples were incubated at 37° C. for 10 min. The samples were then filtered under vacuum through Whatman GF/B glass-fiber filters. The tubes were then rinsed with 5 ml incubation buffer, which was poured on the filters. The filters were finally washed twice with 5 ml buffer and placed in counting vials. After addition of 5 ml scintillation fluid (Lumagel) radioactivity was estimated by liquid scintillation counting. Non-specific binding was obtained by adding Mianserin (1 μM) to separate samples. Each drug was tested at least twice at 5 concentrations in triplicate. IC50-values were determined from log concentration-response curves.--The presence of sulpiride excluded binding to dopamine D-2 receptors.

[7] = pithed rats, 0.02 mg/kg, jugular vein, read-out: Effects on pressor response of 5-HT, % eff. of 0.02 mg/kg
[8] = 5 mg/kg ip, diastolic pressure (DAP), max change within one hour, read-out: Antihypertensive eff. SHR, max eff. in % of 5 mg/kg ip, DAP
[9] = 5 mg/kg ip, systolic pressure (SAP), max change within one hour, read-out: Antihypertensive eff. SHR, max eff. in % of 5 mg/kg ip, SAP
[10] = read-out: Effects on pressor response of 5-HT, % eff. of 0.02 mg/kg, pithed rats, 0.02 mg/kg, jugular vein
[11] = read-out: Antihypertensive eff. SHR, max eff. in % of 5 mg/kg ip, DAP, 5 mg/kg ip, diastolic pressure (DAP), max change within one hour
[12] = read-out: Antihypertensive eff. SHR, max eff. in % of 5 mg/kg ip, SAP, 5 mg/kg ip, systolic pressure (SAP), max change within one hour
[13] = pithed rats, 0.02 mg/kg, jugular vein
[14] = 5 mg/kg ip, diastolic pressure (DAP), max change within one hour
[15] = 5 mg/kg ip, systolic pressure (SAP), max change within one hour

Row | Compound | ED50 [4] | ED50 [5] | change in vivo at 0.02 mg/kg [2, 10] | IC50 [6] | change in vivo at 5 mg/kg [3, 11] | change in vivo at 5 mg/kg [3, 12] | other results
1 | CC(C)c1ccc2c(c1)[C@H](N1CCN(CCN3CCNC3=O)CC1)C[C@H]2c1ccc(F)cc1 (relative stereo) [compound 5] | 1.7 µmol/kg | 24 µmol/kg | – | – | – | – | change in vivo at […] [1]: -33%; change in vivo at 0.02 mg/kg [2, 7]: -6%; change in vivo at 5 mg/kg [3, 8]: -10%; change in vivo at 5 mg/kg [3, 9]: -9%
2 | O=C1NCCN1CCN1CCN([C@@H]2C[C@@H](c3ccc(F)cc3)c3ccc(C(F)(F)F)cc32)CC1 (relative stereo) [compound 6] | 0.29 µmol/kg | 1.8 µmol/kg | -52% | 9.9 nM | -14% | -10% | –
3 | O=C1OCCN1CCN1CCN([C@@H]2C[C@@H](c3ccc(F)cc3)c3ccccc32)CC1 (relative stereo) [compound 7] | 2.7 µmol/kg | > 83 µmol/kg | – | – | – | – | change in vivo at […] [1]: -18%; change in vivo at 0.02 mg/kg [2, 7]: -4%; change in vivo at 5 mg/kg [3, 8]: -19%; change in vivo at 5 mg/kg [3, 9]: -15%
4 | O=C1OCCN1CCN1CCN([C@@H]2C[C@@H](c3ccc(F)cc3)c3ccc(F)cc32)CC1 (relative stereo) [compound 8] | 1.3 µmol/kg | 18 µmol/kg | – | – | – | – | change in vivo at […] [1]: -19%; ED50 ([1]; pithed rats, jugular vein): 4.35 µmol/kg; Phenylephr. antg./5-HT antg. (ratio) ([1]; pithed rats, ratio of phenylephrine ED50 to 5-HT ED50): 52; change in vivo at 0.02 mg/kg [2, 7]: -40%; ED50 ([2]; pithed rats, jugular vein, read-out: Effects on pressor response of 5-HT, ED50): 0.084 µmol/kg; change in vivo at 5 mg/kg [3, 8]: -26%; change in vivo at 5 mg/kg [3, 9]: -20%
5 | CN1CCN(CCN2CCN([C@@H]3C[C@@H](c4ccc(F)cc4)c4ccccc43)CC2)C1=O (relative stereo) [compound 11] | 1.4 µmol/kg | > 80 µmol/kg | -81% | 13 nM | -8% | -6% | –
6 | CCN1CCN(CCN2CCN([C@@H]3C[C@@H](c4ccc(F)cc4)c4ccc(F)cc43)CC2)C1=O (relative stereo) [compound 12] | 0.092 µmol/kg | > 75 µmol/kg | -94% | 4.9 nM | 4% | 4% | peripheral or central action [3]: marked central effects
7 | CC(C)N1CCN(CCN2CCN([C@@H]3C[C@@H](c4ccc(F)cc4)c4ccc(F)cc43)CC2)C1=O (relative stereo) [compound 13] | 0.11 µmol/kg | > 73 µmol/kg | -79% | 5.2 nM | -5% | -5% | peripheral or central action [3]: marked central effects
8 | O=C1OCCN1CCCN1CCN([C@@H]2C[C@@H](c3ccc(F)cc3)c3ccc(F)cc32)CC1 (relative stereo) [compound 15] | 0.31 µmol/kg | 39 µmol/kg | – | – | – | – | change in vivo at […] [1]: -7%; change in vivo at 0.02 mg/kg [2, 7]: -31%; change in vivo at 5 mg/kg [3, 8]: -18%; change in vivo at 5 mg/kg [3, 9]: -12%
9 | O=c1[nH]c2ccccc2n1CCN1CCN([C@@H]2C[C@@H](c3ccc(F)cc3)c3ccc(F)cc32)CC1 (relative stereo) [compound 16] | 0.28 µmol/kg | > 72 µmol/kg | -52% | 9.7 nM | -11% | -15% | –
10 | O=C1CCCN1CCN1CCN([C@@H]2C[C@@H](c3ccc(F)cc3)c3ccc(F)cc32)CC1 (relative stereo) [compound 18] | 0.76 µmol/kg | 18 µmol/kg | -67% | 12 nM | – | – | Antihypertensive eff. SHR, max eff. in % of 5 mg/kg ip, SAP/DAP (inactive) ([3]; 5 mg/kg ip): I
11 | O=c1[nH]c2ccccc2c(=O)n1CCN1CCN([C@H]2C[C@H](c3ccc(F)cc3)c3ccccc32)CC1 (relative stereo) [compound 19] | – | > 70 µmol/kg | – | – | – | – | Effects on pressor response of Phenylephrine, % eff. of […] ([1]; pithed rats, jugular vein): -42%; Effects on pressor response of 5-HT, % eff. of 0.02 mg/kg [2, 13]: -35%; Antihypertensive eff. SHR, max eff. in % of 5 mg/kg ip, DAP [3, 14]: -27%; Antihypertensive eff. SHR, max eff. in % of 5 mg/kg ip, SAP [3, 15]: -22%
12 | CN1CCC(CCN2CCN([C@H]3C[C@H](c4ccc(F)cc4)c4ccccc43)CC2)C1=O (relative stereo) [compound 23] | 1.4 µmol/kg | > 61 µmol/kg | – | 16 nM | – | – | Effects on pressor response of 5-HT, % eff. of 0.02 mg/kg [2, 13]: -38%; Antihypertensive eff. SHR, max eff. in % of 5 mg/kg ip, DAP [3, 14]: -43%; Antihypertensive eff. SHR, max eff. in % of 5 mg/kg ip, SAP [3, 15]: -31%
13 | O=C1NCCCN1CCN1CCN([C@@H]2C[C@@H](c3ccc(F)cc3)c3ccc(F)cc32)CC1 (relative stereo) [compound 25] | 1.2 µmol/kg | > 59 µmol/kg | -60% | 12 nM | – | – | Antihypertensive eff. SHR, max eff. in % of 5 mg/kg ip, SAP/DAP (inactive) ([3]; 5 mg/kg ip): I
14 | Fc1ccc([C@@H]2C[C@@H](N3CCN(CCN4CCCNC4=S)CC3)c3cc(F)ccc32)cc1 (relative stereo) [compound 26] | 0.11 µmol/kg | – | -67% | 7.7 nM | -19% | -13% | –
15 | Fc1ccc([C@@H]2C[C@@H](N3CCN(CCN4CCNC4=S)CC3)c3ccccc32)cc1 (relative stereo) [compound 27, Trans-1-[3-(4-fluorophenyl)-indan-1-yl]-4-[2-(imidazolidin-2-thion-1-yl)ethyl]piperazine] | 0.48 µmol/kg | > 61 µmol/kg | -71% | 4.7 nM | -29% | -18% | –
16 | O=C1NCCN1CCN1CCN([C@@H]2C[C@@H](c3ccc(F)cc3)c3ccc(Cl)cc32)CC1 (single isomer, unassigned) [-20] | < 8.4 µmol/kg | – | – | – | – | – | Effects on pressor response of Phenylephrine, % eff. of […] ([1]; pithed rats, jugular vein): +21%; Effects on pressor response of 5-HT, % eff. of 0.02 mg/kg [2, 13]: -11%; Antihypertensive eff. SHR, max eff. in % of 5 mg/kg ip, DAP [3, 14]: -16%; Antihypertensive eff. SHR, max eff. in % of 5 mg/kg ip, SAP [3, 15]: -7%; MePh antg. ED50 ([5]; i.p., mice, 2 hours before methylphenidate 60 mg/kg s.c.): > 67 µmol/kg
17 | O=C(c1ccc(F)cc1)C1CCN(CCn2c(=O)[nH]c3ccccc3c2=O)CC1 [Ketanserin, reference compound] | 0.58 µmol/kg | 101 µmol/kg | -46% | – | -24% | -32% | ED50 [1]: 3.6 µmol/kg; ED50 ([2]; read-out: Effects on pressor response of 5-HT, ED50, pithed rats, jugular vein): 0.033 µmol/kg; ED10 ([3]; read-out: Antihypertensive eff. SHR, ED10 DAP): 1.2 µmol/kg; ED10 ([3]; read-out: Antihypertensive eff. SHR, ED10 SAP): 1.6 µmol/kg
